Read-outs that look alike come from different tables or passages of the source.
Columns and labels:
HIV-1/EVK [1] = test: microbe, parasite or virus in culture; type: cell-based; settings: added after virus adsorption; for EC50: read-out: Protection of cells from death PD50
Experimental: The Anti-HIV activity of dipeptide 1 was studied on a highly HIV-sensitive cell culture MT-4. […] Then, aliquots of serial dilutions of dipeptide 1 in DMSO were added into the wells to the final concentrations of 0.1 ng/ml to 1 μg/ml (each concentration in triplicate). The experimental (with the preparation added) and control (without the preparation added) infected cells were cultivated at 37° C. and 5% CO2 for 4 days. […] 3, p. […] The inhibiting dose for dipeptide 1 is 0.4 μM. The dose of the compound protecting the cells from death (PD50) was also determined. […] Additionally, the selectivity index (IS) calculated as a ratio of the toxic dose of dipeptide 1 to the protection dose thereof PD50 (CD50/PD50) was determined.

B-cellular immunity = B-cellular immunity upon immunization with BSA, specific antibody titer by enzyme-linked immunoassay; type: in vivo, mice; settings: for Antibody titer (inverse value): mice, s.c. BSA with compound, sera at day 10 post second immunization; for Immunogenicity coefficient: relative to BSA without the preparation
Experimental: 400 μg of BSA was injected subcutaneously to the animals in 0.5 ml of 0.9% NaCl. Three groups of control animals were involved. […] Additionally, glycyrrhizinic acid (GA) was used as a known immunomodulator. Preimmune mice served as a control. At day 21 the second immunization was performed similarly (the injection solution contained 100 μg of BSA and 200 μg of the test compound). At day 10 post the second immunization blood sera were collected. The titer of antibodies was determined by an enzyme-linked immunoassay technique according to the procedure as described [Enzyme-linked immunoassay technique//Edited by T. T. Igo, G. Lenkhoffaju—Moscow: Mir, 1998].

HIV-1/EVK [2] = test: microbe, parasite or virus in culture; type: cell-based; settings: added simultaneously with the virus
Experimental: The anti-HIV activity of dipeptide 1 was studied on a highly HIV-sensitive cell culture MT-4. The MT-4 cells were added into the wells of a 96-well culture plate and infected with a virus stock (strain HIV-1/EVK) at a multiplicity of infection of 0.2-0.5 tissue culture infective dose per cell, then the test substance was added into a cell suspension simultaneously with the virus to give the final concentration of 0.00001 to 1 μg/ml (each concentration in triplicate) and incubated at 37° C. for 1 h (virus adsorption). On completion of the incubation, the suspension of the infected cells was diluted with a complete growth medium with all supplements as described above containing the preparations in the same concentrations to give the inoculation concentration of 0.5×10^6 cells/ml.
The experimental (with the preparation added) and control (without the preparation added) infected cells and control uninfected cells (without the preparation added) were cultivated at 37° C. and 5% CO2 for 4 days. On completion of the incubation the proportion of viable cells was counted in a Gorjaev's chamber after staining with a 0.4% trypan blue solution and the accumulation level of virus-specific protein p24 was controlled by the immunoenzyme method as described [Fedyuk N. V., Konovalov E. E., Loktev V. B., Uryvaev L. V., Kulyandin S. A., Pokrovsky A. G.//Problems of Virology, 1992, v. 3, p. 135].
In addition, the inhibiting dose ID90 that corresponds to the concentration of dipeptide 1 suppressing the virus production by 90% was determined. […] PD50, the concentration of dipeptide 1 protecting by 50% the infected cells from the virus-induced cytopathic effect was also calculated as described earlier by us [Svinarchuk P. P., Konevetz D. A., Pliasunova O. A., Pokrovsky A. G., Vlassov V. V.//Biochimie, 1993, Bd. 75, S. 243]. […] Comparing the concentrations inducing 50 and 90% inhibition of virus accumulation provides an important characteristic of the anti-viral activity.

MT-4 cells [3] = settings: human, 4 days
T-cellular immunity = T-cellular immunity upon immunization with sheep red blood cells, rosette formation method; type: in vivo, mice; settings: for Number of rosettes per 10^3 cells: mice, s.c. SRBC with compound (10 mg/kg), splenocytes at day 6; for Stimulation index: rosettes with compound / rosettes with SRBC alone
Experimental: The effect on stimulating T-cellular immunity upon injection with a strong antigen of sheep red blood cells (SRBC) was studied by the rosette formation method.
Outbred male mice weighing 20-22 g were used in the experiment. […] SRBC without dipeptide 1 (negative control) or SRBC with IFA or with GA (positive control) were injected to the control animals; another control group—preimmune animals. At day 6 post immunization a suspension of splenocytes was prepared at a concentration of […] per 1 milliliter. 0.9 ml of the splenocyte suspension and 0.1 ml of a suspension of sheep red blood cells (10^9 cells per milliliter) were placed in glass vials, mixed and incubated for 16 h at 4° C. After incubation, 4 ml of a cold medium was added into the glass vial, carefully mixed; 100 μl of cell suspension was withdrawn using a pipette with a wide-bore mouth, stained with a 0.4% trypan blue solution and the number of rosettes was counted in a Gorjaev's chamber [Friemel H Immunological methods/Translated from German, edited by M. A. Frolova.—Moscow: Mir, 1979, 518 p.]. The results are presented as the number of rosettes formed per […]. The stimulation index was calculated as a ratio of the number of rosettes in the experiment (immunization with SRBC in a mixture with the compound studied) and the number of rosettes in the control (immunization with SRBC alone).

white outbred mice = test: Acute toxicity, intraperitoneal injection; type: in vivo
Experimental: 0.5 ml of the compound was injected intraperitoneally to mice weighing 20 g, each group comprising 4 animals. 0.5 ml of sterile sunflower oil was injected to the control mice.

MT-4 cells [4] = test: Cytotoxicity on MT-4 cells (trypan blue viable cell count, 4 days); settings: concentration reducing by 50% the proportion of viable MT-4 cells
[5] = Human immunodeficiency virus 1, MT4, 96 h, MT-4, HIV-1/EVK, 4 days, read-out: Inhibition of P24 accumulation ID50

Molecule | IS (selectivity index) (HIV-1/EVK [1]; CD50/ID50) | IC50 (HIV-1/EVK [1]; [5]) [nM] | EC50 (HIV-1/EVK [1]; Human immunodeficiency virus 1, MT4, MT-4, HIV-1/EVK) [nM] | Inhibition of P24 accumulation ID90 (HIV-1/EVK [1]; MT-4, HIV-1/EVK, 4 days) | Antibody titer (inverse value) (B-cellular immunity) | Immunogenicity coefficient (B-cellular immunity) | IS (selectivity index) (HIV-1/EVK [2]; CD50/ID50) | IC50 (HIV-1/EVK [2]; [5]) [nM] | Inhibition of P24 accumulation ID90 (HIV-1/EVK [2]; MT-4, HIV-1/EVK, 4 days) [nM] | CD50 (MT-4 cells [3]) [µM] | Number of rosettes per 10^3 cells (T-cellular immunity) | Stimulation index (T-cellular immunity) | EC50 (HIV-1/EVK [1]; MT-4, HIV-1/EVK) [nM] | EC50 (HIV-1/EVK [2]; concentration protecting by 50% the infected cells from virus-induced cytopathic effect, read-out: PD50) [nM] | hazard class (white outbred mice; from LD50, mice) | LD50 (white outbred mice; mice of both sexes) | CD50 (MT-4 cells [4]) [µM]
C=C(C)[C@@H]1CC[C@]2(C(=O)NCCCCCCCCC(=O)NC(CC(=O)O)c3ccccc3)CC[C@]3(C)C(CCC4[C@@]5(C)CCC(=O)C(C)(C)C5CC[C@]43C)C12 (stereo partly drawn) [Compound 9] | 14.0 | 400 | 500 | Not achieved | 51200 | 256 | 2135 | 2.6 | 198 | 5.6 | 21 ± 1.4 | 1.8 | – | – | – | – | –
CC1(C)[C@@H](O[C@H]2O[C@H](C(=O)O)[C@@H](O)[C@H](O)[C@H]2O[C@@H]2O[C@H](C(=O)O)[C@@H](O)[C@H](O)[C@H]2O)CC[C@]2(C)[C@H]3C(=O)C=C4[C@@H]5C[C@@](C)(C(=O)O)CC[C@]5(C)CC[C@@]4(C)[C@]3(C)CC[C@@H]12 [GA, glycyrrhizinic acid] | – | – | – | – | 5120 | 25.6 | – | – | – | – | 24 ± 1.1 | 2.0 | – | – | – | – | –
N′-{N-[3-oxo-lupan-28-oyl]-9-aminononanoyl}-3-amino-3-phenylpropionic acid [Compound 1] | – | – | – | Not achieved | – | – | – | – | 100 | – | 24 ± 1.3 | – | 250 | 15 | class 3 of moderately hazardous substances | more than 2500 mg/kg | 6.8
